From patent publication US20220009967A1, “Isolation and Semi-Synthesis of Rufomycin Analogs” (THE BOARD OF TRUSTEES OF THE UNIVERSITY OF ILLINOIS, priority 2020, published 2022)
In brackets after ≈: the same amount, converted by molar mass.

What was measured:
M. tuberculosis = experiment: MIC against M. tuberculosis, microplate Alamar Blue assay (MABA); format: cell-based, Mycobacterium tuberculosis; set-up: MIC90: unit not given beside the values; details: for MIC90: MABA, Table 3, unit not given
Protocol: MICs against M. tuberculosis. The MIC was defined as the minimum concentration of the compound required to achieve a reduction in fluorescence by 90% relative to the untreated bacterial controls. The anti-TB activity was determined by the microplate Alamar Blue assay (MABA) as previously described (Choules et al., Antimicrob. Agents Chemother. 2019, 63, e02204-02218).

Mycobacterial ClpC1-NTD = molecular target: T1, Mycobacterial ClpC1-NTD (Mycobacterium tuberculosis, UniProt P9WPC9); experiment: SPR binding affinity to ClpC1-NTD; details: ClpC1 N-terminal domain; KD=kd/ka; Table 1; read-out: SPR KD NTD
T1 construct: caseinolytic protein C1 (ClpC1) N-terminal domain (NTD)
Protocol: (§1) Analysis of binding affinity to Mycobacterial ClpC1-NTD and FL by SPR. SPR binding assay was performed using a previously reported method (Choules et al., Antimicrob. Agents Chemother. 2019, 63, e02204-02218; Wolf et al., ACS Infect. Dis. 2019, 5, 829-840). Kinetic rate constants (ka and kd) were determined by fitting the double-reference data globally to the 1:1 Langmuir model embedded in the Biacore T200 evaluation software (v3.0). KD values were then calculated from the two rate constants (KD=kd/ka). Smaller KD values represent tighter binding affinities.

Mycobacterial ClpC1 FL = molecular target: T2, Mycobacterial ClpC1 FL (Mycobacterium tuberculosis, UniProt P9WPC9); experiment: SPR binding affinity to ClpC1 full-length protein (FL); details: ClpC1 full-length protein; KD=kd/ka; Table 1; read-out: SPR KD FL
T2 construct: N-terminal domain (NTD) and the full-length protein (FL) by surface plasmon resonance (SPR)
Protocol: as §1

T2 sequence (P9WPC9 whole entry, the tested form may be a part): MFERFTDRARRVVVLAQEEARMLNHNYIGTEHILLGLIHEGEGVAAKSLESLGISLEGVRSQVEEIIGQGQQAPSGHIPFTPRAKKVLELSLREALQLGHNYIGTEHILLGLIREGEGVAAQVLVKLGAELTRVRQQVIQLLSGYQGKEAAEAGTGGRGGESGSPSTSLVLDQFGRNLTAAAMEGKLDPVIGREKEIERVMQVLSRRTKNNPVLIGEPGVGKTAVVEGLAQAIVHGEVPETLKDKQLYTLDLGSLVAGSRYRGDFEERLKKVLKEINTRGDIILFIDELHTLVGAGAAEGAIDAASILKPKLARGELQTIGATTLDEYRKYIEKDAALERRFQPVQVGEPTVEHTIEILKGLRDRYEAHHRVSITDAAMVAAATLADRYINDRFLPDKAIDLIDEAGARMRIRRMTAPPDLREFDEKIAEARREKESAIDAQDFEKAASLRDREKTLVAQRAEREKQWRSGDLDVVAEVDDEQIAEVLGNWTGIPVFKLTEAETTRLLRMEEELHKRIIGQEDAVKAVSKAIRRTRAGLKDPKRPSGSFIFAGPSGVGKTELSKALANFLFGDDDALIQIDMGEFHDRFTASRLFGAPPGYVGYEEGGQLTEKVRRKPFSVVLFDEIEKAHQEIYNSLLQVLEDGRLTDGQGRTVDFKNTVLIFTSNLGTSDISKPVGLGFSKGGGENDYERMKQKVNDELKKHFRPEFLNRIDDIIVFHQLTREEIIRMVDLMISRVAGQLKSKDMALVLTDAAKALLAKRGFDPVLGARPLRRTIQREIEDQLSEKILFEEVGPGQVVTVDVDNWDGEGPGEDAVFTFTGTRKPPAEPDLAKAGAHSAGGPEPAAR

Compound: C/C=C/C[C@@H]1NC(=O)[C@H](CC(C)C)N2C=C(C)C[C@@H](C2=O)N(C)C(=O)[C@H](C)NC(=O)[C@H](Cc2ccc(O)c([N+](=O)[O-])c2)NC(=O)[C@H](CC(C)C)N(C)C(=O)[C@H](Cc2cn(C(C)(C)[C@H](O)CCl)c3ccccc23)NC1=O [Compound 3]
- MIC (M. tuberculosis; Mycobacterium tuberculosis): 0.0188 ± 0.004 µM (≈ 0.0199 µg/mL)
- Kd (Mycobacterial ClpC1-NTD): 82.3 nM
- Kd (Mycobacterial ClpC1 FL): 97.1 nM

Compound: C/C=C/C[C@@H]1NC(=O)[C@H](CC(C)C)N2C(=O)[C@H](CC(C)[C@H]2OC)N(C)C(=O)[C@H](C)NC(=O)[C@H](Cc2ccc(O)c([N+](=O)[O-])c2)NC(=O)[C@H](CC(C)C)N(C)C(=O)[C@H](Cc2cn(C(C)(C)[C@H](O)COC)c3ccccc23)NC1=O (some centres unmarked) [Compound 4]
- MIC (M. tuberculosis; Mycobacterium tuberculosis): 0.0064 ± 0.0018 µM (≈ 0.00697 µg/mL)
- Kd (Mycobacterial ClpC1-NTD): 88.5 nM
- Kd (Mycobacterial ClpC1 FL): 79.9 nM

Compound: C/C=C/C[C@@H]1NC(=O)[C@H](CC(C)C)N2C(=O)[C@H](CC(C)[C@H]2OC)N(C)C(=O)[C@H](C)NC(=O)[C@H](Cc2ccc(O)c([N+](=O)[O-])c2)NC(=O)[C@H](CC(C)C)N(C)C(=O)[C@H](Cc2cn(C(C)(C)[C@H](O)CCl)c3ccccc23)NC1=O (some centres unmarked) [Compound 5]
- Kd (Mycobacterial ClpC1-NTD): 123 nM
- Kd (Mycobacterial ClpC1 FL): 163 nM

Compound: C/C=C/C[C@@H]1NC(=O)[C@H](CC(C)C)N2C(=O)[C@H](CC(C)[C@H]2OC)N(C)C(=O)[C@H](C)NC(=O)[C@H](Cc2ccc(O)c([N+](=O)[O-])c2)NC(=O)[C@H](CC(C)C)N(C)C(=O)[C@H](Cc2cn(C(C)(C)[C@H]3CO3)c3ccccc23)NC1=O (some centres unmarked) [Compound 6]
- increase in activity compared to rufomycin analogues 1 and 2 (M. tuberculosis; MIC ratio, in words): ten-fold increase in activity
- MIC (M. tuberculosis; text summary of Table 1, unit not given): 1.9
- Kd (Mycobacterial ClpC1-NTD): 103 nM
- Kd (Mycobacterial ClpC1 FL): 31.7 nM

Compound: C/C=C/C[C@@H]1NC(=O)[C@H](CC(C)C)N2C(=O)[C@H](CC(C)[C@H]2O)N(C)C(=O)[C@H](C)NC(=O)[C@H](Cc2ccc(O)c([N+](=O)[O-])c2)NC(=O)[C@H](CC(C)C)N(C)C(=O)[C@H](Cc2cn(C(C)(C)[C@H](O)CCl)c3ccccc23)NC1=O (some centres unmarked) [Compound 7]
- MIC (M. tuberculosis; Mycobacterium tuberculosis): 0.0464 ± 0.0046 µM (≈ 0.0501 µg/mL)
- Kd (Mycobacterial ClpC1-NTD): 114 nM
- Kd (Mycobacterial ClpC1 FL): 116 nM

Compound: C/C=C/C[C@@H]1NC(=O)[C@H](CC(C)C)N2C(=O)[C@H](CC(C)[C@H]2OCC)N(C)C(=O)[C@H](C)NC(=O)[C@H](Cc2ccc(O)c([N+](=O)[O-])c2)NC(=O)[C@H](CC(C)C)N(C)C(=O)[C@H](Cc2cn(C(C)(C)[C@H](O)CCl)c3ccccc23)NC1=O (some centres unmarked) [Compound 8]
- MIC (M. tuberculosis; Mycobacterium tuberculosis): 0.244 ± 0.0271 µM (≈ 0.27 µg/mL)
- Kd (Mycobacterial ClpC1-NTD): 120 nM
- Kd (Mycobacterial ClpC1 FL): 142 nM

Compound: C/C=C/C[C@@H]1NC(=O)[C@H](CC(C)C)N2C(=O)[C@H](CC(C)[C@H]2OCCC)N(C)C(=O)[C@H](C)NC(=O)[C@H](Cc2ccc(O)c([N+](=O)[O-])c2)NC(=O)[C@H](CC(C)C)N(C)C(=O)[C@H](Cc2cn(C(C)(C)[C@H](O)CCl)c3ccccc23)NC1=O (some centres unmarked) [Compound 10]
- MIC (M. tuberculosis; Mycobacterium tuberculosis): 0.75 ± 0.0107 µM (≈ 0.84 µg/mL)
- Kd (Mycobacterial ClpC1-NTD): 90.7 nM
- Kd (Mycobacterial ClpC1 FL): 143 nM

Compound: C/C=C/C[C@@H]1NC(=O)[C@H](CC(C)C)N2C=C(C)C[C@@H](C2=O)N(C)C(=O)[C@H](C)NC(=O)[C@H](Cc2ccc(OC(C)=O)c([N+](=O)[O-])c2)NC(=O)[C@H](CC(C)C)N(C)C(=O)[C@H](Cc2cn(C(C)(C)[C@H](O)CCl)c3ccccc23)NC1=O [Compound 15]
- MIC (M. tuberculosis; Mycobacterium tuberculosis): 0.0224 µM (≈ 0.0247 µg/mL)
- Kd (Mycobacterial ClpC1-NTD): 317 nM
- Kd (Mycobacterial ClpC1 FL): 513 nM

Compound: C/C=C/C[C@@H]1NC(=O)[C@H](CC(C)C)N2C=C(C)C[C@@H](C2=O)N(C)C(=O)[C@H](C)NC(=O)[C@H](Cc2ccc(OC)c([N+](=O)[O-])c2)NC(=O)[C@H](CC(C)C)N(C)C(=O)[C@H](Cc2cn(C(C)(C)[C@H]3CO3)c3ccccc23)NC1=O [Compound 16]
- MIC (M. tuberculosis; Mycobacterium tuberculosis): 0.0726 µM (≈ 0.0754 µg/mL)
- Kd (Mycobacterial ClpC1-NTD): 580 nM
- Kd (Mycobacterial ClpC1 FL): 883 nM

Compound: NNC(=O)c1ccncc1 [INH, isoniazid, reference compound]
- MIC90 (M. tuberculosis): 463

Compound: CO[C@H]1/C=C/O[C@@]2(C)Oc3c(C)c(O)c4c(O)c(c(/C=N/N5CCN(C)CC5)c(O)c4c3C2=O)NC(=O)/C(C)=C\C=C\[C@H](C)[C@H](O)[C@@H](C)[C@@H](O)[C@@H](C)[C@H](OC(C)=O)[C@@H]1C [RMP, rifampin, reference compound]
- MIC90 (M. tuberculosis): 28
